“And” between values parts separate entries of the source, which are not always exact repeats. Identical values can stand only once. “Also recorded” adds a separate entry of the source. Like-named read-outs stand apart in the source and are kept apart here.
Legend:
[1] = system: ADP-induced GPVI dimerization; test: ADP-induced 9E18 binding to platelets (PRP) of patients treated with P2Y12 antagonists, ex vivo; format: in vivo, human
Description: FIG. 3: 9E18 as a marker of platelet activation and reactivity: Blood samples were obtained from (A) a cohort of patients with coronary artery disease admitted for percutaneous coronary intervention (n=45) and (B) healthy volunteers (n=40). For each subject, GPVI dimerization, represented by the extent of 9E18 positive platelets, is plotted against P-selectin exposure. Blood samples were obtained from (C) patients treated by prasugel and (D) healthy volunteers. For each subject the binding of FITC-coupled 9E18 to platelets was measured by flow cytometry after incubation of the PRP with buffer or ADP (10 μM) for 20 min.
FIG. 4: 9E18 as a marker of platelet activation and reactivity A: 9E18 binding to platelets and P-selectin exposure were measured in blood samples (PRP) obtained from a cohort of patients with CAD admitted for percutaneous coronary intervention (n=45). B: ADP-induced binding of 9E18 to platelets was measured on blood samples (PRP) from normal subjects and patients with CAD treated by clopidogrel (n=26). Results are expressed as the ratio between the levels of 9E18 binding to ADP-stimulated/non-stimulated samples×100.C: ADP-induced binding to platelets of patients treated by clopidogrel was plotted against corresponding data of the VASP phosphorylation assay.
Blood samples were obtained from a cohort of patients with coronary artery disease (CAD) referred to the department of cardiology of Bichat hospital for percutaneous coronary intervention (BIOCORE-2 study, Clinical Trial Registration—URL: http://clinicaltrials.gov/ct2/show/NCT01186666?term=NCT01186666&rank=1). The study complies with the Declaration of Helsinky and was approved by the institutional ethics committee. All of the patients provided written informed consent. Blood was drawn on 0.109M citrate the day after percutaneous coronary intervention (PCI). PRP, a waste of the established protocol, was used for this study. Analysis was performed less than one hour after blood sampling, on PRP using FITC-coupled 9E18, 3J24 or anti-P-selectin. […]

[2] = system: GPVI dimerization on platelets; test: Effect of agonists and inhibitors on 9E18 binding to platelets (GPVI dimerization), flow cytometry; format: cell-based, human; details: for effect on 9E18 binding / GPVI dimerization of activated platelets / effect on 9E18 binding to resting as well as activated platelets: ADP-; for effect on 9E18 binding / GPVI dimerization of activated platelets: TRAP- or PMA-activated platelets; for effect on 9E18 binding to resting as well as activated platelets: TRAP- or PMA-activated washed platelets
FcRγ = FcRγ phosphorylation in activated platelets; format: cell-based, human; details: conditions leading to GPVI dimerization
[3] = system: platelet adhesion to immobilized collagen; test: GPVI-dependent platelet adhesion to immobilized collagen (static); format: cell-based, human; details: PMA-treated platelets
[4] = system: P-selectin exposure on platelets; test: P-selectin exposure on platelets, flow cytometry; format: cell-based, human; details: washed platelets
[5] = target: T1, GPVI dimers on shear-activated platelets (Homo sapiens, UniProt Q9HCN6); test: Shear-induced platelet activation, 9E18 binding; format: cell-based; details: washed platelets
T1 construct: Blood was obtained from healthy volunteers; endogenous in cells; host or cells: human platelets (whole blood, PRP, washed platelets or lysates) from healthy volunteers or coronary artery disease patients
T1 sequence (Q9HCN6 21-339): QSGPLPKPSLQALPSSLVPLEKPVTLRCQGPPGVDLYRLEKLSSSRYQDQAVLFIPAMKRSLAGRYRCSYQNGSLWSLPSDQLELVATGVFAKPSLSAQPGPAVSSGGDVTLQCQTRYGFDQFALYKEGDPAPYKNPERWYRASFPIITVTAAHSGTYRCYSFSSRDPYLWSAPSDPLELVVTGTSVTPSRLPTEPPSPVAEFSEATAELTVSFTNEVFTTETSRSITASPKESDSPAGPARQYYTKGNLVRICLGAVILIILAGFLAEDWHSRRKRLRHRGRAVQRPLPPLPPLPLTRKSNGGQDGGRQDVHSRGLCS
T1 sequence (P30273 19-86 partner): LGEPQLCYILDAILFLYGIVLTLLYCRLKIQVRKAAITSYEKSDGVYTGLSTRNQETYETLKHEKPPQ

[6] = target: T2, 9E18 binding to stimulated platelets (Homo sapiens, UniProt Q9HCN6); test: Inhibition of 9E18 binding to stimulated platelets by soluble GPVI or IV.3; format: cell-based
T2 construct: Blood was obtained from healthy volunteers; endogenous in cells; host or cells: human platelets (whole blood, PRP, washed platelets or lysates) from healthy volunteers or coronary artery disease patients
T2 sequence (Q9HCN6 21-339): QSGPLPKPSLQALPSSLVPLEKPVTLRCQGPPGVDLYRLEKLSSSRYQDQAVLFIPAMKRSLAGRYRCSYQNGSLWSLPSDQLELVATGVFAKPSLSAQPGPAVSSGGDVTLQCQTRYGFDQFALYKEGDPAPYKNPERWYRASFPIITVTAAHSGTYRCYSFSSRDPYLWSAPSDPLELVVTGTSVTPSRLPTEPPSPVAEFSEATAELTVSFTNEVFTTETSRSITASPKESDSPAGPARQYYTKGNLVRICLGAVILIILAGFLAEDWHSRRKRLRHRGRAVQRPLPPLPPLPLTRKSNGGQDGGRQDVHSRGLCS
T2 sequence (P30273 19-86 partner): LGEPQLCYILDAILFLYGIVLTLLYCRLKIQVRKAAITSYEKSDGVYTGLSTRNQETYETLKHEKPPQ
Protocol: Resting and activated platelets (5×10^7 mL^−1 in whole blood or PRP or buffer) were incubated with FITC-coupled anti-GPVI or P-selectin antibodies for 20 min and, when needed fixed with 1% PFA. Samples were analyzed by flow cytometry using Epics XL.MCL (Coulter) or LSRII (Becton Dickinson Biosciences) apparatus. Platelet glycoprotein quantification was performed using the quantification kit, Platelet GP screen (Byocytex, Marseille, France).

collagen = test: Binding of recombinant soluble GPVI to collagen (purified proteins, microtitration wells); set-up: species or system equine; details: Example 1
[7] = target: T3, 9E18 binding to immobilized GPVI-Fc (Homo sapiens, UniProt Q9HCN6); test: Competition: binding of 9E18 to immobilized GPVI-Fc in presence of soluble GPVI
T3 construct: Recombinant soluble GPVI was obtained as the extracellular domain of human GPVI; made in house; host or cells: HEK cells
T3 sequence (Q9HCN6 21-267 limits assumed): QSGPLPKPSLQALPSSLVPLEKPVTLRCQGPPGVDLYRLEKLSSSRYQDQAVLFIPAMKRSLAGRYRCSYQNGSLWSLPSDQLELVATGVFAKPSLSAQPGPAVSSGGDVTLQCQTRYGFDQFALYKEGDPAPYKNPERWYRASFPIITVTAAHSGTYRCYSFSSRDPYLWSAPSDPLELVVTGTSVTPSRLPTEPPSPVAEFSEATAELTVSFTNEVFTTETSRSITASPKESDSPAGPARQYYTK

COC(=O)[C@H](c1ccccc1Cl)N1CCc2sccc2C1 [clopidogrel, (+)-(S)-methyl 2-(2-chlorophenyl)-2-(6,7-dihydrothieno[3,2-c]pyridin-5(4H)-yl)acetate]
ADP-induced 9E18 binding response in treated patients vs normal subjects ([1]; 75 mg, PRP): highly significant reduction

apyrase
effect on ADP-induced 9E18 binding to platelets ([2]; ADP): fully prevented
inhibition of ADP-induced binding of 9E18 ([2]; ADP): 85%
reduction of TRAP-induced binding of 9E18 [2]: 75%
reduction of TRAP-induced binding of 9E18 ([2]; listed as Apyrase): 50%

Cc1ccc(-c2nn(C(C)(C)C)c3ncnc(N)c23)cc1 [PP1]
level of PMA-induced 9E18 binding in presence of inhibitor ([2]; 20 μM inhibitor, PMA-treated platelets): 28.4%

COc1ccc2c(c1)c(CC(=O)O)c(C)n2C(=O)c1ccc(Cl)cc1 [indomethacine, Indomethacin]
effect on 9E18 binding to ADP- or TRAP-stimulated platelets ([2]; ADP or TRAP): no effect

CCCCCCCCCCCCCC(=O)O[C@@H]1[C@@H](C)[C@@]2(O)[C@@H](C=C(CO)C[C@]3(O)C(=O)C(C)=C[C@@H]23)[C@@H]2C(C)(C)[C@]12OC(C)=O [PMA]
FcRγ phosphorylation in activated platelets (FcRγ): not phosphorylated
effect on GPVI-dependent platelet adhesion to immobilized collagen [3]: increase
effect of agonist on binding of 9E18 to platelets [2]: significantly increased
level of 9E18 binding to PMA-treated platelets ([2]; PMA alone): 31.5±4% and 27.7%

CNC[C@H](O)c1ccc(O)c(O)c1 [Epinephrine]
factor of increase of 9E18 binding to platelets [2]: 1.5

Nc1ncnc2c1ncn2[C@@H]1O[C@H](COP(=O)(O)OP(=O)(O)O)[C@@H](O)[C@H]1O [ADP, adenosine diphosphate]
FcRγ phosphorylation in activated platelets (FcRγ): not phosphorylated
surface exposure of P-selectin induced by agonist [4]: induced surface exposure of P-selectin
effect of agonist on binding of 9E18 to platelets [2]: increased

CCCCC[C@H](O)/C=C/[C@H]1[C@H](O)CC(=O)[C@@H]1CCCCCCC(=O)O [PGE1, prostaglandin E1]
effect on 9E18 binding to ADP- or TRAP-stimulated platelets ([2]; ADP or TRAP): dropped to basal level
effect on 9E18 binding / GPVI dimerization of activated platelets [2]: drastically reduced; also recorded: inhibited
effect on PMA-induced 9E18 binding to platelets ([2]; PMA): greatly decreased
effect on 9E18 binding in the absence of agonist ([2]; preincubation, no agonist): lowered
effect on 9E18 binding to resting as well as activated platelets [2]: reduced

vWF: von Willebrand factor added to washed platelets
effect of addition on shear-induced platelet aggregation and level of 9E18 binding [5]: parallel increase

CSc1nc(N)c2ncn([C@@H]3O[C@H](COP(=O)(O)O)[C@@H](O)[C@H]3O)c2n1 [2MeSAMP]
effect on 9E18 binding to ADP- or TRAP-stimulated platelets [2]: inhibited; also recorded: prevented
effect on ADP-induced 9E18 binding to platelets [2]: blocked

CC(=O)N[C@@H](C(=O)O)C(C)(C)SN=O (racemic) [SNAP]
effect on 9E18 binding / GPVI dimerization of activated platelets [2]: same effect; also recorded: inhibited
effect on 9E18 binding to resting as well as activated platelets [2]: inhibited

CC(=O)Oc1cc2c(s1)CCN(C(C(=O)C1CC1)c1ccccc1F)C2 (stereo not shown) [prasugrel]
ADP-induced increase of 9E18 binding to platelets of treated patients ([1]; PRP, ADP 10 μM, good responders by VASP test): not to platelets of 9 patients treated by prasugrel; also recorded: blocked
9E18 binding and VASP phosphorylation in response to ADP ([1]; one treated patient (low response)): remained increased

B1: GPVI-His: extracellular domain of human GPVI fused to a poly-His Tag, monomeric (protein, UniProt Q9HCN6 21-267, looked up)
extracellular domain: QSGPLPKPSLQALPSSLVPLEKPVTLRCQGPPGVDLYRLEKLSSSRYQDQAVLFIPAMKRSLAGRYRCSYQNGSLWSLPSDQLELVATGVFAKPSLSAQPGPAVSSGGDVTLQCQTRYGFDQFALYKEGDPAPYKNPERWYRASFPIITVTAAHSGTYRCYSFSSRDPYLWSAPSDPLELVVTGTSVTPSRLPTEPPSPVAEFSEATAELTVSFTNEVFTTETSRSITASPKESDSPAGPARQYYTK
modifications: extracellular domain poly-His tag
notes: extracellular domain of human GPVI fused to a poly-His Tag, monomeric
inhibition of 9E18 binding to stimulated platelets [6]: not
inhibition of 9E18 binding to stimulated platelets ([6]; listed as monomers): not by monomers
affinity for collagen (collagen): 14.7 ± 3.27 µg/mL
IC50, inhibition of 9E18 binding to immobilized GPVI-Fc by soluble GPVI [7]: 3.7 ± 2.2 µg/mL
inhibition of 9E18 binding to GPVI-Fc ([7]; GPVI-His up to 10 μg·mL^−1): 70%
IC50 ([7]; molar value in brackets, Example 1, read-out: IC50, inhibition of 9E18 binding to immobilized GPVI-Fc by soluble GPVI): 74 nM
Kd ([7]; value in brackets after IC50, Example 2, read-out: Kd from competition of 9E18 binding to GPVI-Fc): 78 nM

Reference: patent US9029095B2, “Method and kits for determining platelet susceptibility to activation in a patient” (Institut National de la Sante et de la Recherche Medicale …, priority 2010, dated 2015)
